According to DBAASP:
In brackets after ≈: the same amount, converted by molar mass.

Tests used:
Test in all cases: ≥ marks a high value that may be exact or a test limit, other limits are often not marked, values filed in µg/mL are converted to µM
[1] = system: Escherichia coli C25
[2] = system: Staphylococcus aureus ATCC 25923
[3] = system: Escherichia coli
[4] = system: Bacillus cereus
[5] = system: Staphylococcus epidermidis
[6] = system: Staphylococcus aureus
[7] = system: Candida albicans
[8] = system: Vibrio alginolyticus
[9] = system: Vibrio parahaemolyticus
[10] = system: Cryptococcus neoformans
[11] = system: Corynebacterium glutamicum
[12] = system: Pseudomonas aeruginosa
[13] = system: Aeromonas hydrophila
[14] = system: Klebsiella pneumoniae ATCC 13883
[15] = system: Escherichia coli KpC+001812446
[16] = system: Escherichia coli ATCC 25922
[17] = system: Klebsiella pneumoniae KpC+001825971
[18] = system: Listeria monocytogenes KCTC 19111
[19] = system: Salmonella typhimurium KCTC 1926
[20] = system: Staphylococcus aureus 3518
[21] = system: Pseudomonas aeruginosa 3241
[22] = system: Pseudomonas aeruginosa 4007
[23] = system: Pseudomonas aeruginosa CCARM 2073
[24] = system: Staphylococcus aureus 3399
[25] = system: Staphylococcus epidermidis KCTC 1917
[26] = system: Pseudomonas aeruginosa ATCC 15692
[27] = system: Pseudomonas aeruginosa CCARM 2075
[28] = system: Staphylococcus aureus CCARM 3709
[29] = system: Staphylococcus aureus CCARM 3125
[30] = system: Staphylococcus aureus ATCC 29213
[31] = system: Pseudomonas aeruginosa CICC 10419
[32] = system: Pseudomonas aeruginosa ATCC 27853
[33] = system: Pseudomonas aeruginosa 25349
[34] = system: Pseudomonas aeruginosa CICC 21630
[35] = system: Pseudomonas aeruginosa CICC 11411
[36] = system: Pseudomonas aeruginosa CICC 11431
[37] = system: Pseudomonas aeruginosa CICC 21625
[38] = system: Pseudomonas aeruginosa CICC 11421
[39] = system: Pseudomonas aeruginosa 21328
[40] = system: Mannheimia haemolytica Serovar 6
[41] = system: Mannheimia haemolytica Serovar 2
[42] = system: Corynebacterium pseudotuberculosis ATCC 19410
[43] = system: Pseudomonas aeruginosa PAO1
[44] = system: Klebsiella pneumoniae
[45] = system: Mannheimia haemolytica Serovar 1
[46] = system: Aspergillus fumigatus
[47] = system: Salmonella enterica subsp. arizonae
[48] = system: Bibersteinia trehalosi
[49] = system: Pasteurella multocida

With `CC[C@H](C)[C@H](NC(=O)CNC(=O)[C@H](CCCCN)NC(=O)[C@H](Cc1ccc(O)cc1)NC(=O)[C@@H](NC(=O)[C@H](CCCCN)NC(=O)[C@H](Cc1ccccc1)NC(=O)[C@H](Cc1c[nH]c2ccccc12)NC(=O)[C@@H](N)CCCCN)C(C)C)C(=O)N[C@@H](Cc1ccc(O)cc1)C(=O)N[C@@H](CCCCN)C(=O)N[C@@H](CCCCN)C(=O)N[C@@H](CCCCN)C(N)=O` [KWFKVYKGIYKKK] the MIC [1] was 8.2 µM (≈ 14.1 µg/mL) and the MIC [2] was 33 µM (≈ 56.6 µg/mL).

With `CC[C@H](C)[C@H](NC(=O)[C@H](C)NC(=O)CNC(=O)[C@@H](NC(=O)[C@@H](NC(=O)[C@H](Cc1cnc[nH]1)NC(=O)[C@H](CCCN=C(N)N)NC(=O)[C@H](Cc1ccccc1)NC(=O)[C@@H](N)Cc1ccccc1)[C@@H](C)CC)C(C)C)C(=O)N[C@@H](CO)C(=O)N[C@@H](CCCN=C(N)N)C(=O)N[C@H](C(=O)N[C@@H](Cc1ccccc1)C(=O)NCC(=O)N[C@@H](CCC(N)=O)C(=O)N[C@@H](CCCCN)C(=O)N[C@@H](CCC(N)=O)C(=O)N[C@@H](CCCN=C(N)N)C(=O)N[C@@H](CC(=O)O)C(=O)N[C@@H](CCSC)C(=O)N[C@@H](C)C(=O)N[C@@H](CC(=O)O)C(=O)O)[C@@H](C)CC` [FFRHIVGAISRIFGQKQRDMAD] the MIC [3] was 17.7 µM (≈ 45.8 µg/mL), the MIC [4] was 17.7 µM (≈ 45.8 µg/mL) and the MIC [5] was 17.7 µM (≈ 45.8 µg/mL). It also gave an MIC [6] of 4.42 µM (≈ 11.5 µg/mL), an MIC [7] of 17.7 µM (≈ 45.8 µg/mL) and an MIC [8] of at least 50 µM. It also gave an MIC [9] of at least 50 µM, an MIC [10] of 2.21 µM (≈ 5.73 µg/mL) and an MIC [11] of 2.21 µM (≈ 5.73 µg/mL). It also gave an MIC [12] of 35.4 µM (≈ 91.7 µg/mL) and an MIC [13] of at least 50 µM.

`CC[C@H](C)[C@H](NC(=O)[C@H](CCCCN)NC(=O)[C@H](CCCCN)NC(=O)[C@H](Cc1ccccc1)NC(=O)[C@H](CC(C)C)NC(=O)[C@H](CCCCN)NC(=O)[C@H](Cc1c[nH]c2ccccc12)NC(=O)[C@H](CCCCN)NC(=O)[C@H](Cc1cnc[nH]1)NC(=O)[C@@H](NC(=O)[C@@H](N)C(C)C)[C@@H](C)CC)C(=O)NCC(=O)N[C@@H](C)C(=O)N[C@H](C(=O)N[C@@H](CC(C)C)C(=O)N[C@@H](CCCCN)C(=O)N[C@H](C(=O)N[C@@H](CC(C)C)C(=O)O)C(C)C)C(C)C` [VIHKWKLFKKIGAVLKVL] gave an MIC [14] of 30 µM (≈ 63.6 µg/mL), an MIC [15] of 4 µM (≈ 8.48 µg/mL) and an MIC [16] of 4 µM (≈ 8.48 µg/mL). It also gave an MIC [17] of 8 µM (≈ 17 µg/mL).

In the case of `NCCCC[C@H](NC(=O)[C@H](Cc1ccc(O)cc1)NC(=O)[C@H](Cc1c[nH]c2ccccc12)NC(=O)[C@H](CCCCN)NC(=O)[C@H](CCCCN)NC(=O)[C@H](Cc1ccc(O)cc1)NC(=O)[C@H](Cc1c[nH]c2ccccc12)NC(=O)[C@H](CCCCN)NC(=O)[C@H](CCCCN)NC(=O)[C@H](Cc1ccc(O)cc1)NC(=O)[C@H](Cc1c[nH]c2ccccc12)NC(=O)[C@@H](N)CCCCN)C(N)=O` [KWYKKWYKKWYK], the MIC [18] is reported as 2 µM (≈ 3.67 µg/mL), the MIC [19] is reported as 2 µM (≈ 3.67 µg/mL) and the MIC [20] is reported as 2 µM (≈ 3.67 µg/mL). It also gave an MIC [21] of 2 µM (≈ 3.67 µg/mL), an MIC [22] of 4 µM (≈ 7.34 µg/mL) and an MIC [23] of 2 µM (≈ 3.67 µg/mL). The MIC [24] was 4 µM (≈ 7.34 µg/mL), the MIC [2] was 4 µM (≈ 7.34 µg/mL) and the MIC [25] was 2 µM (≈ 3.67 µg/mL). For the same compound, the MIC [26] was 2 µM (≈ 3.67 µg/mL), the MIC [27] was 2 µM (≈ 3.67 µg/mL) and the MIC [28] was 2 µM (≈ 3.67 µg/mL). The MIC [16] was 2 µM (≈ 3.67 µg/mL) and the MIC [29] was 4 µM (≈ 7.34 µg/mL).

`C[C@H](N)C(=O)N[C@@H](CCCN=C(N)N)C(=O)N[C@@H](CCCN=C(N)N)C(=O)N[C@@H](C)C(=O)N[C@@H](CCCN=C(N)N)C(=O)N[C@@H](CCCN=C(N)N)C(=O)N[C@@H](CCCN=C(N)N)C(=O)N[C@@H](Cc1c[nH]c2ccccc12)C(=O)N[C@@H](CCCN=C(N)N)C(=O)N[C@@H](CCCN=C(N)N)C(=O)N[C@@H](CCCN=C(N)N)C(=O)N[C@@H](C)C(=O)N[C@@H](CCCN=C(N)N)C(=O)N[C@@H](CCCN=C(N)N)C(=O)N[C@@H](C)C(N)=O` [ARRARRRWRRRARRA] was tested, and the MIC [30] was 31.2 µM (≈ 64 µg/mL), the MIC [31] was at least 125 µM and the MIC [32] was 62.4 µM (≈ 128 µg/mL). The MIC [33] was 15.6 µM (≈ 32 µg/mL), the MIC [34] was at least 125 µM and the MIC [35] was at least 125 µM. For the same compound, the MIC [36] was at least 125 µM, the MIC [37] was at least 125 µM and the MIC [38] was at least 125 µM. For the same compound, the MIC [16] was 31.2 µM (≈ 64 µg/mL) and the MIC [39] was at least 125 µM.

Compound `CC[C@H](C)[C@H](N)C(=O)N[C@@H](CCCN=C(N)N)C(=O)N[C@@H](CCCN=C(N)N)C(=O)N[C@H](C(=O)N[C@H](C(=O)N[C@@H](CCCN=C(N)N)C(=O)N[C@@H](CCCCN)C(=O)N[C@H](C(=O)N[C@H](C(=O)N[C@@H](Cc1cnc[nH]1)C(=O)N[C@H](C(=O)N[C@H](C(=O)N[C@@H](CCCCN)C(=O)N[C@@H](CCCCN)C(=O)O)[C@@H](C)CC)[C@@H](C)CC)[C@@H](C)CC)[C@@H](C)CC)[C@@H](C)CC)[C@@H](C)CC` [IRRIIRKIIHIIKK] has an MIC [40] of 3.72 µM (≈ 6.7 µg/mL), an MIC [41] of 2.33 µM (≈ 4.2 µg/mL) and an MIC [42] of 11.1 µM (≈ 20 µg/mL). The MIC [43] was 2.78 µM (≈ 5 µg/mL), the MIC [44] was over 11.1 µM and the MIC [6] was over 11.1 µM. The MIC [45] was 5.55 µM (≈ 10 µg/mL), the MIC [46] was 22.2 µM (≈ 40 µg/mL) and the MIC [47] was 11.1 µM (≈ 20 µg/mL). For the same compound, the MIC [48] was 11.1 µM (≈ 20 µg/mL) and the MIC [49] was 8.33 µM (≈ 15 µg/mL).
